{"source": "paper PMC5218480", "about": "(PLoS ONE, 2017)", "system": "MV-4-11 cells", "experiment": "Gene expression microarray analysis (Affymetrix PrimeView) and GSEA", "type": "cell-based, human", "set-up": "RFU PODN (11730768_x_at) / Fold change /veh PODN (11730768_x_at) / RFU LINC00158 (11744669_a_at) / Fold change /veh LINC00158 (11744669_a_at) / RFU DUSP10 (11751237_a_at) / Fold change /veh DUSP10 (11751237_a_at) / RFU ID3 (11757404_x_at) / Fold change /veh ID3 (11757404_x_at) / RFU PLEKHG5 (11737974_s_at) / Fold change /veh PLEKHG5 (11737974_s_at) / RFU LRRC4B (11730491_at) / Fold change /veh LRRC4B (11730491_at) / RFU GIMAP4 (11747438_a_at) / Fold change /veh GIMAP4 (11747438_a_at) / RFU KRT8 (11758183_x_at) / Fold change /veh KRT8 (11758183_x_at) / RFU CNN1 (11734310_a_at) / Fold change /veh CNN1 (11734310_a_at) / RFU VPS37D (11726825_at) / Fold change /veh VPS37D (11726825_at) / RFU C10orf10 (11716522_x_at) / Fold change /veh C10orf10 (11716522_x_at) / RFU KIR2DL2 /// KIR2DL4 /// KIR2DL5A /// KIR2DL5B /// KIR2DS1 /// KIR2DS2 /// KIR2DS3 /// KIR2DS4 /// KIR3DL3 /// KIR3DL3 /// KIR3DS1 (11738374_at) / Fold change /veh KIR2DL2 /// KIR2DL4 /// KIR2DL5A /// KIR2DL5B /// KIR2DS1 /// KIR2DS2 /// KIR2DS3 /// KIR2DS4 /// KIR3DL3 /// KIR3DL3 /// KIR3DS1 (11738374_at) / RFU C1QL1 (11718748_at) / Fold change /veh C1QL1 (11718748_at) / RFU TMPRSS4 (11747572_a_at) / Fold change /veh TMPRSS4 (11747572_a_at) / RFU HAMP (11756126_x_at) / Fold change /veh HAMP (11756126_x_at) / RFU RNFT2 (11725882_a_at) / Fold change /veh RNFT2 (11725882_a_at) / RFU NR4A2 (11747474_a_at) / Fold change /veh NR4A2 (11747474_a_at) / RFU ABCC12 (11746883_a_at) / Fold change /veh ABCC12 (11746883_a_at) / RFU TMEM136 (11760407_x_at) / Fold change /veh TMEM136 (11760407_x_at) / RFU CLDN22 /// WWC2 (11732394_at) / Fold change /veh CLDN22 /// WWC2 (11732394_at) / RFU HLA-DPB1 (11760878_x_at) / Fold change /veh HLA-DPB1 (11760878_x_at) / RFU SPINT1 (11716480_a_at) / Fold change /veh SPINT1 (11716480_a_at) / RFU GAP43 (11754022_s_at) / Fold change /veh GAP43 (11754022_s_at) / RFU A4GNT (11735810_at) / Fold change /veh A4GNT (11735810_at) / RFU PRB3 (11715151_x_at) / Fold change /veh PRB3 (11715151_x_at) / RFU TUBB4B (11761932_at) / Fold change /veh TUBB4B (11761932_at) / RFU CAPN14 (11732068_a_at) / Fold change /veh CAPN14 (11732068_a_at) / RFU TMCC2 (11721928_a_at) / Fold change /veh TMCC2 (11721928_a_at) / RFU IRGQ (11745062_a_at) / Fold change /veh IRGQ (11745062_a_at) / RFU FAM174B (11720279_a_at) / Fold change /veh FAM174B (11720279_a_at) / RFU TMPRSS4 (11748680_a_at) / Fold change /veh TMPRSS4 (11748680_a_at) / RFU FAM212B (11763350_a_at) / Fold change /veh FAM212B (11763350_a_at) / RFU PLEKHG5 (11743358_a_at) / Fold change /veh PLEKHG5 (11743358_a_at) / RFU ZSCAN30 (11745921_a_at) / Fold change /veh ZSCAN30 (11745921_a_at) / RFU CMKLR1 (11741424_a_at) / Fold change /veh CMKLR1 (11741424_a_at) / RFU LOC101060620 /// MAPK8IP1 (11723275_at) / Fold change /veh LOC101060620 /// MAPK8IP1 (11723275_at) / RFU SPTSSB (11747773_x_at) / Fold change /veh SPTSSB (11747773_x_at) / RFU PRSS12 (11739890_at) / Fold change /veh PRSS12 (11739890_at) / RFU BIN1 (11741810_x_at) / Fold change /veh BIN1 (11741810_x_at) / RFU WNT11 (11732464_a_at) / Fold change /veh WNT11 (11732464_a_at) / RFU C10orf10 (11716521_a_at) / Fold change /veh C10orf10 (11716521_a_at) / RFU C5orf56 (11738089_at) / Fold change /veh C5orf56 (11738089_at) / RFU CYB561 (11721691_x_at) / Fold change /veh CYB561 (11721691_x_at) / RFU ANKRD19P (11752326_a_at) / Fold change /veh ANKRD19P (11752326_a_at) / RFU OR2T12 /// OR2T33 /// OR2T8 (11738714_s_at) / Fold change /veh OR2T12 /// OR2T33 /// OR2T8 (11738714_s_at) / RFU VCAN (11748164_a_at) / Fold change /veh VCAN (11748164_a_at) / RFU JSRP1 (11732532_at) / Fold change /veh JSRP1 (11732532_at) / RFU KRTAP10-11 (11738290_x_at) / Fold change /veh KRTAP10-11 (11738290_x_at) / RFU MYO3A (11730013_a_at) / Fold change /veh MYO3A (11730013_a_at) / RFU EBF3 (11725865_a_at) / Fold change /veh EBF3 (11725865_a_at) / RFU CAMK2N1 (11719241_x_at) / Fold change /veh CAMK2N1 (11719241_x_at) / RFU C5orf56 (11738088_a_at) / Fold change /veh C5orf56 (11738088_a_at) / RFU OLFML3 (11715873_a_at) / Fold change /veh OLFML3 (11715873_a_at) / RFU LOC100653217 /// NTM (11731650_a_at) / Fold change /veh LOC100653217 /// NTM (11731650_a_at) / RFU MAPK11 (11762145_a_at) / Fold change /veh MAPK11 (11762145_a_at) / RFU FIZ1 (11724087_x_at) / Fold change /veh FIZ1 (11724087_x_at) / RFU OASL (11726364_x_at) / Fold change /veh OASL (11726364_x_at) / RFU SOX15 (11748057_x_at) / Fold change /veh SOX15 (11748057_x_at) / RFU CD79A (11719716_a_at) / Fold change /veh CD79A (11719716_a_at) / RFU HIST1H1D (11736915_at) / Fold change /veh HIST1H1D (11736915_at) / RFU CASKIN2 (11723855_a_at) / Fold change /veh CASKIN2 (11723855_a_at) / RFU LOC730098 (11760151_x_at) / Fold change /veh LOC730098 (11760151_x_at) / RFU OR4N2 (11742367_at) / Fold change /veh OR4N2 (11742367_at) / RFU PRRT2 (11749266_a_at) / Fold change /veh PRRT2 (11749266_a_at) / RFU SNX32 (11753110_a_at) / Fold change /veh SNX32 (11753110_a_at) / RFU CDHR5 (11726645_a_at) / Fold change /veh CDHR5 (11726645_a_at) / RFU RCAN1 (11760418_a_at) / Fold change /veh RCAN1 (11760418_a_at) / RFU FAM167A (11723789_a_at) / Fold change /veh FAM167A (11723789_a_at) / RFU FAM26E (11764081_at) / Fold change /veh FAM26E (11764081_at) / RFU ISYNA1 (11749810_s_at) / Fold change /veh ISYNA1 (11749810_s_at) / RFU ACY1 (11761880_at) / Fold change /veh ACY1 (11761880_at) / RFU 11764098_at / Fold change /veh 11764098_at / RFU SAMD14 (11745864_x_at) / Fold change /veh SAMD14 (11745864_x_at) / RFU NPB (11741838_a_at) / Fold change /veh NPB (11741838_a_at) / RFU TMPRSS6 (11731388_a_at) / Fold change /veh TMPRSS6 (11731388_a_at) / RFU KRTAP10-2 (11738614_at) / Fold change /veh KRTAP10-2 (11738614_at) / RFU ARHGAP8 /// PRR5-ARHGAP8 (11727945_x_at) / Fold change /veh ARHGAP8 /// PRR5-ARHGAP8 (11727945_x_at) / RFU KRTAP5-7 /// NADSYN1 (11734609_at) / Fold change /veh KRTAP5-7 /// NADSYN1 (11734609_at) / RFU RASL12 (11751679_a_at) / Fold change /veh RASL12 (11751679_a_at) / RFU CDKN2B (11736163_a_at) / Fold change /veh CDKN2B (11736163_a_at) / RFU PRF1 (11729649_at) / Fold change /veh PRF1 (11729649_at) / RFU, ZNF638 /// ZNF638-IT1 / Fold change vs veh, ZNF638 /// ZNF638-IT1 / RFU, PANK3 / Fold change vs veh, PANK3 / RFU, SH3YL1 / Fold change vs veh, SH3YL1 / RFU, ZEB2 / Fold change vs veh, ZEB2 / RFU, NRIP1 / Fold change vs veh, NRIP1 / RFU, PTTG1IP / Fold change vs veh, PTTG1IP / RFU, CAPN2 / Fold change vs veh, CAPN2 / RFU, MED14 / Fold change vs veh, MED14 / RFU, SNORA58 / Fold change vs veh, SNORA58 / RFU, C1orf63 / Fold change vs veh, C1orf63 / RFU, LRRFIP1 / Fold change vs veh, LRRFIP1 / RFU, NDUFAF7 / Fold change vs veh, NDUFAF7 / RFU, SLC12A2 / Fold change vs veh, SLC12A2 / RFU, IBTK / Fold change vs veh, IBTK / RFU, ESF1 / Fold change vs veh, ESF1 / Fold change vs veh, TMEM50B / RFU, TAOK1 / Fold change vs veh, TAOK1 / RFU, ACBD3 / Fold change vs veh, ACBD3 / RFU, TMA16 / Fold change vs veh, TMA16 / RFU, RWDD3 / Fold change vs veh, RWDD3 / RFU, BCAT1 / Fold change vs veh, BCAT1 / RFU, EDEM3 / Fold change vs veh, EDEM3 / RFU, TMEM33 / Fold change vs veh, TMEM33 / RFU, WDR75 / Fold change vs veh, WDR75 / RFU, AHCTF1 / Fold change vs veh, AHCTF1 / RFU, TFRC / Fold change vs veh, TFRC / RFU, ZDHHC17 / Fold change vs veh, ZDHHC17 / RFU, NOM1 / Fold change vs veh, NOM1 / RFU, ARL8B / Fold change vs veh, ARL8B / RFU, ZBTB11 / Fold change vs veh, ZBTB11 / RFU, TAMM41 / Fold change vs veh, TAMM41 / RFU, KIAA1704 /// LOC100996395 / Fold change vs veh, KIAA1704 /// LOC100996395 / RFU, ING1 / Fold change vs veh, ING1 / RFU, TRMT61B / Fold change vs veh, TRMT61B / RFU, FUBP3 / Fold change vs veh, FUBP3 / RFU, TP53 / Fold change vs veh, TP53 / RFU, TNKS2 / Fold change vs veh, TNKS2 / RFU, ZFP14 / Fold change vs veh, ZFP14 / RFU, ACTR2 / Fold change vs veh, ACTR2 / RFU, PPP3R1 / Fold change vs veh, PPP3R1 / RFU, PIK3R1 / Fold change vs veh, PIK3R1 / RFU, HNRNPA1 / Fold change vs veh, HNRNPA1 / RFU, RNF170 / Fold change vs veh, RNF170 / RFU, ZNF28 / Fold change vs veh, ZNF28 / RFU, RNGTT / Fold change vs veh, RNGTT / RFU, OGT / Fold change vs veh, OGT / RFU, BRD1 / Fold change vs veh, BRD1 / RFU, MARS / Fold change vs veh, MARS / RFU, ZNF655 / Fold change vs veh, ZNF655 / RFU, FAHD1 / Fold change vs veh, FAHD1 / RFU, BDP1 / Fold change vs veh, BDP1 / RFU, LRRCC1 / Fold change vs veh, LRRCC1 / RFU, ARID1A / Fold change vs veh, ARID1A / RFU, ZNF146 / Fold change vs veh, ZNF146 / RFU, ZNF330 / Fold change vs veh, ZNF330 / RFU, GPN3 / Fold change vs veh, GPN3 / RFU, C9orf123 / Fold change vs veh, C9orf123 / RFU, N4BP2L2 / Fold change vs veh, N4BP2L2 / RFU, ARFIP1 / Fold change vs veh, ARFIP1 / RFU, FAM179B / Fold change vs veh, FAM179B / RFU, BCL10 / Fold change vs veh, BCL10 / RFU, UHRF1BP1L / Fold change vs veh, UHRF1BP1L / RFU, BET1 / Fold change vs veh, BET1 / RFU, CNOT2 / Fold change vs veh, CNOT2 / RFU, ZNF268 / Fold change vs veh, ZNF268 / Fold change vs veh, ZNF507 / RFU, DGCR2 / Fold change vs veh, DGCR2 / RFU, WDSUB1 / Fold change vs veh, WDSUB1 / Fold change vs veh, HSP90B1 /// MIR3652 / RFU, ADSS / Fold change vs veh, ADSS / RFU, GK / Fold change vs veh, GK / RFU, ZNF148 / Fold change vs veh, ZNF148 / RFU, TAF9 / Fold change vs veh, TAF9 / RFU, SLC1A5 / Fold change vs veh, SLC1A5 / RFU, SLMO2 / Fold change vs veh, SLMO2 / RFU, ABCC4 / Fold change vs veh, ABCC4 / RFU, LOC101060439 /// RAP1B / Fold change vs veh, LOC101060439 /// RAP1B / RFU, RFX7 / Fold change vs veh, RFX7 / RFU, GTPBP10 / Fold change vs veh, GTPBP10 / RFU, CNEP1R1 / Fold change vs veh, CNEP1R1 / RFU, BIVM-ERCC5 /// ERCC5 / Fold change vs veh, BIVM-ERCC5 /// ERCC5 / RFU, ILF3 / Fold change vs veh, ILF3 / RFU 11762660_at / Fold change /veh 11762660_at / RFU VCAN (11757783_s_at) / Fold change /veh VCAN (11757783_s_at) / RFU DDX43 (11728927_at) / Fold change /veh DDX43 (11728927_at) / RFU KRT8 (11758188_x_at) / Fold change /veh KRT8 (11758188_x_at) / RFU NKD1 (11759106_at) / Fold change /veh NKD1 (11759106_at) / RFU SRD5A1 (11742802_a_at) / Fold change /veh SRD5A1 (11742802_a_at) / RFU TPSAB1 /// TPSB2 (11721975_s_at) / Fold change /veh TPSAB1 /// TPSB2 (11721975_s_at) / RFU GSTM3 (11746129_a_at) / Fold change /veh GSTM3 (11746129_a_at) / RFU IL23R (11737362_x_at) / Fold change /veh IL23R (11737362_x_at) / RFU TMEM51 (11727254_a_at) / Fold change /veh TMEM51 (11727254_a_at) / RFU PIWIL2 (11732686_x_at) / Fold change /veh PIWIL2 (11732686_x_at) / RFU ORM1 (11744905_x_at) / Fold change /veh ORM1 (11744905_x_at) / RFU CCDC152 (11743942_at) / Fold change /veh CCDC152 (11743942_at) / RFU ECM1 (11717891_a_at) / Fold change /veh ECM1 (11717891_a_at) / RFU IL23R (11748794_a_at) / Fold change /veh IL23R (11748794_a_at) / RFU TNFAIP8L3 (11732012_x_at) / Fold change /veh TNFAIP8L3 (11732012_x_at) / RFU MBOAT4 (11741988_at) / Fold change /veh MBOAT4 (11741988_at) / RFU 11764193_at / Fold change /veh 11764193_at / RFU TMEM53 (11763286_at) / Fold change /veh TMEM53 (11763286_at) / RFU MAGEB2 (11727129_at) / Fold change /veh MAGEB2 (11727129_at) / RFU TMEM200A (11744735_a_at) / Fold change /veh TMEM200A (11744735_a_at) / RFU CCDC152 (11751479_a_at) / Fold change /veh CCDC152 (11751479_a_at) / RFU FAM211A (11726209_a_at) / Fold change /veh FAM211A (11726209_a_at) / RFU RGS16 (11746705_a_at) / Fold change /veh RGS16 (11746705_a_at) / RFU VCAN (11755009_s_at) / Fold change /veh VCAN (11755009_s_at) / RFU RHOB (11743442_s_at) / Fold change /veh RHOB (11743442_s_at) / RFU RGS16 (11720943_a_at) / Fold change /veh RGS16 (11720943_a_at) / RFU RGS16 (11720944_at) / Fold change /veh RGS16 (11720944_at) / RFU, VPS4B / Fold change vs veh, VPS4B / RFU, CREB1 / Fold change vs veh, CREB1 / RFU, DNAJC13 / Fold change vs veh, DNAJC13 / RFU, GNAQ / Fold change vs veh, GNAQ / RFU, CDK5R1 / Fold change vs veh, CDK5R1 / RFU, ZRANB3 / Fold change vs veh, ZRANB3 / RFU, CUL4A / Fold change vs veh, CUL4A / RFU, CCNY / Fold change vs veh, CCNY / RFU, UFL1 / Fold change vs veh, UFL1 / RFU, COG3 / Fold change vs veh, COG3 / RFU, DIAPH2 / Fold change vs veh, DIAPH2 / RFU, SKA2 / Fold change vs veh, SKA2 / RFU, AFF3 / Fold change vs veh, AFF3 / RFU, LMF1 / Fold change vs veh, LMF1 / RFU, IPO11 / Fold change vs veh, IPO11 / RFU, DFFB / Fold change vs veh, DFFB / RFU, FOXP1 / Fold change vs veh, FOXP1 / RFU, CARD8 / Fold change vs veh, CARD8 / RFU, STRN3 / Fold change vs veh, STRN3 / RFU, ADK / Fold change vs veh, ADK / RFU, RASSF2 / Fold change vs veh, RASSF2 / RFU, WIPF1 / Fold change vs veh, WIPF1 / RFU, LARP1B / Fold change vs veh, LARP1B / RFU, RASA1 / Fold change vs veh, RASA1 / RFU, RB1 / Fold change vs veh, RB1 / RFU, PPFIA1 / Fold change vs veh, PPFIA1 / RFU, MAT2A / Fold change vs veh, MAT2A / RFU, CCT5 / Fold change vs veh, CCT5 / RFU, WDR92 / Fold change vs veh, WDR92 / RFU, CUX1 / Fold change vs veh, CUX1 / RFU, TTC7A / Fold change vs veh, TTC7A / RFU, TMEM135 / Fold change vs veh, TMEM135 / RFU, DEPTOR / Fold change vs veh, DEPTOR / RFU, CPM / Fold change vs veh, CPM / RFU, DNAJB6 / Fold change vs veh, DNAJB6 / RFU, CACNA2D3 / Fold change vs veh, CACNA2D3 / RFU, DTX4 / Fold change vs veh, DTX4 / RFU, TFCP2 / Fold change vs veh, TFCP2 / RFU, GMCL1 /// GMCL1P1 / Fold change vs veh, GMCL1 /// GMCL1P1 / RFU, AEBP2 / Fold change vs veh, AEBP2 / RFU, SNHG1 /// SNORD22 /// SNORD25 /// SNORD26 /// SNORD27 /// SNORD28 /// SNORD29 /// SNORD31 / Fold change vs veh, SNHG1 /// SNORD22 /// SNORD25 /// SNORD26 /// SNORD27 /// SNORD28 /// SNORD29 /// SNORD31 / Fold change (Aza/veh), C12orf56 (ProbeSet 11735607_a_at) / Fold change (ACY-1035/veh), C12orf56 (ProbeSet 11735607_a_at) / Fold change (Aza/veh), FGFR1OP (ProbeSet 11751329_s_at) / Fold change (ACY-1035/veh), FGFR1OP (ProbeSet 11751329_s_at) / Fold change (Aza/veh), VPS36 (ProbeSet 11739960_a_at) / Fold change (ACY-1035/veh), VPS36 (ProbeSet 11739960_a_at) / RFU SYPL1 (11715823_x_at) / Fold change /veh SYPL1 (11715823_x_at) / RFU IGFBP7 (11715501_s_at) / Fold change /veh IGFBP7 (11715501_s_at) / RFU REEP3 (11722064_at) / Fold change /veh REEP3 (11722064_at) / RFU IGLL1 (11728026_x_at) / Fold change /veh IGLL1 (11728026_x_at): dose or concentration left out as unconfirmed", "conditions": "ProbeSet 11732277_a_at; LIST D"}
{"smiles": "Nc1ncn([C@@H]2O[C@H](CO)[C@@H](O)[C@H]2O)c(=O)n1", "note": "[azacitidine]", "values": [{"measurement": "Fold change vs veh, FOXP1", "result": 0.59}]}
